Like-named read-outs stand apart in the source and are kept apart here.
Experiments:
Assay in all cases: Test E pre-/postemergence plant response
Assay type in all cases: in vivo
[1] = tested on: galium (catchweed bedstraw, Galium aparine); settings: scale 0 to 100, read-out: Plant response rating, Galium; for pest or weed control at 16 g/ha: 16 g ai/ha; for pest or weed control at 31 g/ha: 31 g ai/ha; for pest or weed control at 62 g/ha: 62 g ai/ha; for pest or weed control at 125 g/ha: 125 g ai/ha
How it was run: (§1)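 Pre-emergence: seeds sown in silt loam soil and sprayed with test chemicals in a non-phytotoxic solvent/surfactant mix. Post-emergence: plants at 2–18 cm (1- to 4-leaf stage) in peat/vermiculite medium treated with the same formulation. Visual rating versus controls after 7–21 days, 0 (no effect) to 100 (complete control).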

[2] = tested on: field violet (Viola arvensis); settings: scale 0 to 100, read-out: Plant response rating, Field Violet; for pest or weed control at 16 g/ha: 16 g ai/ha; for pest or weed control at 31 g/ha: 31 g ai/ha; for pest or weed control at 62 g/ha: 62 g ai/ha; for pest or weed control at 125 g/ha: 125 g ai/ha
How it was run: as §1

[3] = tested on: spring wheat (Triticum aestivum); settings: scale 0 to 100, read-out: Plant response rating, Wheat, Spring; for plant injury at 16 g/ha: 16 g ai/ha; for plant injury at 62 g/ha: 62 g ai/ha; for plant injury at 125 g/ha: 125 g ai/ha
How it was run: as §1

[4] = tested on: pigweed (Amaranthus retroflexus); settings: scale 0 to 100, read-out: Plant response rating, Pigweed; for pest or weed control at 16 g/ha: 16 g ai/ha; for pest or weed control at 31 g/ha: 31 g ai/ha; for pest or weed control at 62 g/ha: 62 g ai/ha; for pest or weed control at 125 g/ha: 125 g ai/ha
How it was run: as §1

[5] = tested on: lambsquarters (Chenopodium album); settings: scale 0 to 100, read-out: Plant response rating, Lambsquarters; for pest or weed control at 16 g/ha: 16 g ai/ha; for pest or weed control at 31 g/ha: 31 g ai/ha; for pest or weed control at 62 g/ha: 62 g ai/ha; for pest or weed control at 125 g/ha: 125 g ai/ha
How it was run: as §1

[6] = tested on: green foxtail (Setaria viridis); settings: scale 0 to 100, read-out: Plant response rating, Foxtail, Green; for pest or weed control at 16 g/ha: 16 g ai/ha; for pest or weed control at 31 g/ha: 31 g ai/ha; for pest or weed control at 62 g/ha: 62 g ai/ha; for pest or weed control at 125 g/ha: 125 g ai/ha
How it was run: as §1

[7] = tested on: chickweed (common chickweed, Stellaria media); settings: scale 0 to 100, read-out: Plant response rating, Chickweed; for pest or weed control at 16 g/ha: 16 g ai/ha; for pest or weed control at 31 g/ha: 31 g ai/ha; for pest or weed control at 62 g/ha: 62 g ai/ha; for pest or weed control at 125 g/ha: 125 g ai/ha
How it was run: as §1

[8] = tested on: Italian ryegrass (Lolium multiflorum); settings: scale 0 to 100, read-out: Plant response rating, Ryegrass, Italian; for pest or weed control at 16 g/ha: 16 g ai/ha; for pest or weed control at 31 g/ha: 31 g ai/ha; for pest or weed control at 62 g/ha: 62 g ai/ha; for pest or weed control at 125 g/ha: 125 g ai/ha
How it was run: as §1

[9] = tested on: winter barley (Hordeum vulgare); settings: scale 0 to 100, read-out: Plant response rating, Barley, Winter; for plant injury at 16 g/ha: 16 g ai/ha; for plant injury at 31 g/ha: 31 g ai/ha; for plant injury at 62 g/ha: 62 g ai/ha; for plant injury at 125 g/ha: 125 g ai/ha
How it was run: as §1

[10] = tested on: oilseed rape (Brassica napus); settings: scale 0 to 100, read-out: Plant response rating, Oilseed Rape; for plant injury at 16 g/ha: 16 g ai/ha; for plant injury at 31 g/ha: 31 g ai/ha; for plant injury at 62 g/ha: 62 g ai/ha; for plant injury at 125 g/ha: 125 g ai/ha
How it was run: as §1

Molecule `Fc1cccc(Oc2ncc(Br)cn2)c1-c1cc(C(F)F)no1` [Compound 145, 5-bromo-2-[2-[3-(difluoromethyl)-5-isoxazolyl]-3-fluorophenoxy]pyrimidine] has a pest or weed control at 16 g/ha ([1]; post-emergence, Postemergence) of 95%, a pest or weed control at 31 g/ha ([1]; post-emergence, Postemergence) of 95% and a pest or weed control at 62 g/ha ([1]; post-emergence, Postemergence) of 98%. It also gave a pest or weed control at 125 g/ha ([1]; post-emergence, Postemergence) of 100%, a pest or weed control at 16 g/ha ([1]; pre-emergence, Preemergence) of 25% and a pest or weed control at 31 g/ha ([1]; pre-emergence, Preemergence) of 100%. It also gave a pest or weed control at 62 g/ha ([1]; pre-emergence, Preemergence) of 100%, a pest or weed control at 125 g/ha ([1]; pre-emergence, Preemergence) of 100% and a pest or weed control at 16 g/ha ([2]; post-emergence, Postemergence) of 65%. It also gave a pest or weed control at 31 g/ha ([2]; post-emergence, Postemergence) of 100%, a pest or weed control at 62 g/ha ([2]; post-emergence, Postemergence) of 90% and a pest or weed control at 125 g/ha ([2]; post-emergence, Postemergence) of 100%. It also gave a pest or weed control at 16 g/ha ([2]; pre-emergence, Preemergence) of 100%, a pest or weed control at 31 g/ha ([2]; pre-emergence, Preemergence) of 100% and a pest or weed control at 62 g/ha ([2]; pre-emergence, Preemergence) of 100%. It also gave a pest or weed control at 125 g/ha ([2]; pre-emergence, Preemergence) of 100%, a plant injury at 16 g/ha ([3]; post-emergence, Postemergence) of 30% and a plant injury at 31 g/ha ([3]; post-emergence, 31 g ai/ha, Postemergence) of 35%. For the same molecule, the plant injury at 62 g/ha ([3]; post-emergence, Postemergence) was 45%, the plant injury at 125 g/ha ([3]; post-emergence, Postemergence) was 55% and the plant injury at 16 g/ha ([3]; pre-emergence, Preemergence) was 15%. The plant injury at 62 g/ha ([3]; pre-emergence, Preemergence) was 20%, the plant injury at 125 g/ha ([3]; pre-emergence, Preemergence) was 70% and the pest or weed control at 16 g/ha ([4]; post-emergence, Postemergence) was 100%. The pest or weed control at 31 g/ha ([4]; post-emergence, Postemergence) was 100%, the pest or weed control at 62 g/ha ([4]; post-emergence, Postemergence) was 100% and the pest or weed control at 125 g/ha ([4]; post-emergence, Postemergence) was 100%. It also gave a pest or weed control at 16 g/ha ([4]; pre-emergence, Preemergence) of 100%, a pest or weed control at 31 g/ha ([4]; pre-emergence, Preemergence) of 100% and a pest or weed control at 62 g/ha ([4]; pre-emergence, Preemergence) of 100%. It also gave a pest or weed control at 125 g/ha ([4]; pre-emergence, Preemergence) of 100%, a pest or weed control at 16 g/ha ([5]; post-emergence, Postemergence) of 90% and a pest or weed control at 31 g/ha ([5]; post-emergence, Postemergence) of 90%. The pest or weed control at 62 g/ha ([5]; post-emergence, Postemergence) was 95%, the pest or weed control at 125 g/ha ([5]; post-emergence, Postemergence) was 95% and the pest or weed control at 16 g/ha ([5]; pre-emergence, Preemergence) was 100%. For the same molecule, the pest or weed control at 31 g/ha ([5]; pre-emergence, Preemergence) was 100%, the pest or weed control at 62 g/ha ([5]; pre-emergence, Preemergence) was 100% and the pest or weed control at 125 g/ha ([5]; pre-emergence, Preemergence) was 100%. It also gave a pest or weed control at 16 g/ha ([6]; post-emergence, Postemergence) of 15%, a pest or weed control at 31 g/ha ([6]; post-emergence, Postemergence) of 30% and a pest or weed control at 62 g/ha ([6]; post-emergence, Postemergence) of 40%. It also gave a pest or weed control at 125 g/ha ([6]; post-emergence, Postemergence) of 98%, a pest or weed control at 16 g/ha ([6]; pre-emergence, Preemergence) of 0% and a pest or weed control at 31 g/ha ([6]; pre-emergence, Preemergence) of 45%. The pest or weed control at 62 g/ha ([6]; pre-emergence, Preemergence) was 55%, the pest or weed control at 125 g/ha ([6]; pre-emergence, Preemergence) was 100% and the pest or weed control at 16 g/ha ([7]; post-emergence, Postemergence) was 80%. It also gave a pest or weed control at 31 g/ha ([7]; post-emergence, Postemergence) of 85%, a pest or weed control at 62 g/ha ([7]; post-emergence, Postemergence) of 100% and a pest or weed control at 125 g/ha ([7]; post-emergence, Postemergence) of 95%. It also gave a pest or weed control at 16 g/ha ([7]; pre-emergence, Preemergence) of 100%, a pest or weed control at 31 g/ha ([7]; pre-emergence, Preemergence) of 100% and a pest or weed control at 62 g/ha ([7]; pre-emergence, Preemergence) of 100%. It also gave a pest or weed control at 125 g/ha ([7]; pre-emergence, Preemergence) of 100%, a pest or weed control at 16 g/ha ([8]; post-emergence, Postemergence) of 5% and a pest or weed control at 31 g/ha ([8]; post-emergence, Postemergence) of 10%. It also gave a pest or weed control at 62 g/ha ([8]; post-emergence, Postemergence) of 25%, a pest or weed control at 125 g/ha ([8]; post-emergence, Postemergence) of 40% and a pest or weed control at 16 g/ha ([8]; pre-emergence, Preemergence) of 10%. It also gave a pest or weed control at 31 g/ha ([8]; pre-emergence, Preemergence) of 20%, a pest or weed control at 62 g/ha ([8]; pre-emergence, Preemergence) of 50% and a pest or weed control at 125 g/ha ([8]; pre-emergence, Preemergence) of 70%. For the same molecule, the plant injury at 16 g/ha ([9]; post-emergence, Postemergence) was 15%, the plant injury at 31 g/ha ([9]; post-emergence, Postemergence) was 15% and the plant injury at 62 g/ha ([9]; post-emergence, Postemergence) was 30%. The plant injury at 125 g/ha ([9]; post-emergence, Postemergence) was 40%, the plant injury at 16 g/ha ([9]; pre-emergence, Preemergence) was 10% and the plant injury at 31 g/ha ([9]; pre-emergence, Preemergence) was 15%. It also gave a plant injury at 62 g/ha ([9]; pre-emergence, Preemergence) of 30%, a plant injury at 125 g/ha ([9]; pre-emergence, Preemergence) of 85% and a plant injury at 16 g/ha ([10]; post-emergence, Postemergence) of 70%. The plant injury at 31 g/ha ([10]; post-emergence, Postemergence) was 100%, the plant injury at 62 g/ha ([10]; post-emergence, Postemergence) was 100% and the plant injury at 125 g/ha ([10]; post-emergence, Postemergence) was 100%. It also gave a plant injury at 16 g/ha ([10]; pre-emergence, Preemergence) of 50%, a plant injury at 31 g/ha ([10]; pre-emergence, Preemergence) of 100% and a plant injury at 62 g/ha ([10]; pre-emergence, Preemergence) of 100%. It also gave a plant injury at 125 g/ha ([10]; pre-emergence, Preemergence) of 100%.

— patent US10131652B2, “Pyrimidinyloxy benzene derivatives as herbicides” (E. I. DU PONT DE NEMOURS AND COMPANY, priority 2014, dated 2018)
